Results from the supplement of paper PMC10307832.

Assays:
Experiment in all cases: relative viability (nuclei count vs DMSO), 5 days (fraction); higher = more cells survive
FG-4592 + OSI-027 = compound: Cc1nc(C(=O)NCC(=O)O)c(O)c2ccc(Oc3ccccc3)cc12 [FG-4592] + COc1cccc2cc(-c3nc([C@H]4CC[C@H](C(=O)O)CC4)n4ncnc(N)c34)[nH]c12 [OSI-027] (partner 0.5 µM)
Summary of the method: (§1)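 Dosing by pin tool came one day after lung cancer cell lines were seeded in 1536-well plates, using either one drug or a fixed anchor-drug dose plus five library-drug doses (not always all listed) in √10 steps. After 5 days, nuclei were counted on 4× images. Relative viability is treated-well nuclei count divided by vehicle-well nuclei count, and values are medians of duplicate plates.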

FG-4592 + Decitabine = compound: Cc1nc(C(=O)NCC(=O)O)c(O)c2ccc(Oc3ccccc3)cc12 [FG-4592] + Nc1ncn([C@H]2C[C@H](O)[C@@H](CO)O2)c(=O)n1 [Decitabine] (partner 2 µM)
Summary of the method: as §1

FG-4592 + Olaparib = compound: Cc1nc(C(=O)NCC(=O)O)c(O)c2ccc(Oc3ccccc3)cc12 [FG-4592] + O=C(c1cc(Cc2n[nH]c(=O)c3ccccc23)ccc1F)N1CCN(C(=O)C2CC2)CC1 [Olaparib] (partner 8 µM)
Summary of the method: as §1

IU1-47 + Pemetrexed = compound: CC1=CC(=C(N1C2=CC=C(C=C2)Cl)C)C(=O)CN3CCCCC3 [IU1-47] + Nc1nc2[nH]cc(CCc3ccc(C(=O)N[C@@H](CCC(=O)O)C(=O)O)cc3)c2c(=O)[nH]1 [Pemetrexed] (partner 0.2 µM)
Summary of the method: as §1

NCI-H2085
relative viability (FG-4592 + OSI-027; first compound 0.08 µM): 0.788
relative viability (FG-4592 + OSI-027; first compound 0.253 µM): 0.735
relative viability (FG-4592 + OSI-027; first compound 0.8 µM): 0.648
relative viability (FG-4592 + OSI-027; first compound 2.53 µM): 0.519
relative viability (FG-4592 + OSI-027; first compound 8 µM): 0.652
relative viability (FG-4592 + Decitabine; first compound 0.08 µM): 0.554
relative viability (FG-4592 + Decitabine; first compound 0.253 µM): 0.493
relative viability (FG-4592 + Decitabine; first compound 0.8 µM): 0.51
relative viability (FG-4592 + Decitabine; first compound 2.53 µM): 0.597
relative viability (FG-4592 + Decitabine; first compound 8 µM): 0.545
relative viability (FG-4592 + Olaparib; first compound 0.08 µM): 0.738
relative viability (FG-4592 + Olaparib; first compound 0.253 µM): 0.779
relative viability (FG-4592 + Olaparib; first compound 0.8 µM): 0.845
relative viability (FG-4592 + Olaparib; first compound 2.53 µM): 0.744
relative viability (FG-4592 + Olaparib; first compound 8 µM): 0.873
relative viability (IU1-47 + Pemetrexed; first compound 0.08 µM): 0.925
relative viability (IU1-47 + Pemetrexed; first compound 0.253 µM): 0.818
relative viability (IU1-47 + Pemetrexed; first compound 0.8 µM): 0.846
relative viability (IU1-47 + Pemetrexed; first compound 2.53 µM): 0.83
relative viability (IU1-47 + Pemetrexed; first compound 8 µM): 0.885

SW 1573
relative viability (FG-4592 + OSI-027; first compound 0.08 µM): 0.556
relative viability (FG-4592 + OSI-027; first compound 0.253 µM): 0.537
relative viability (FG-4592 + OSI-027; first compound 0.8 µM): 0.63
relative viability (FG-4592 + OSI-027; first compound 2.53 µM): 0.536
relative viability (FG-4592 + OSI-027; first compound 8 µM): 0.561
relative viability (FG-4592 + Decitabine; first compound 0.08 µM): 0.516
relative viability (FG-4592 + Decitabine; first compound 0.253 µM): 0.505
relative viability (FG-4592 + Decitabine; first compound 0.8 µM): 0.537
relative viability (FG-4592 + Decitabine; first compound 2.53 µM): 0.482
relative viability (FG-4592 + Decitabine; first compound 8 µM): 0.447
relative viability (FG-4592 + Olaparib; first compound 0.08 µM): 0.426
relative viability (FG-4592 + Olaparib; first compound 0.253 µM): 0.632
relative viability (FG-4592 + Olaparib; first compound 0.8 µM): 0.597
relative viability (FG-4592 + Olaparib; first compound 2.53 µM): 0.612
relative viability (FG-4592 + Olaparib; first compound 8 µM): 0.483
relative viability (IU1-47 + Pemetrexed; first compound 0.08 µM): 0.935
relative viability (IU1-47 + Pemetrexed; first compound 0.253 µM): 0.912
relative viability (IU1-47 + Pemetrexed; first compound 0.8 µM): 0.766
relative viability (IU1-47 + Pemetrexed; first compound 2.53 µM): 0.657
relative viability (IU1-47 + Pemetrexed; first compound 8 µM): 0.749

NCI-H441
relative viability (FG-4592 + OSI-027; first compound 0.08 µM): 0.589
relative viability (FG-4592 + OSI-027; first compound 0.253 µM): 0.537
relative viability (FG-4592 + OSI-027; first compound 0.8 µM): 0.621
relative viability (FG-4592 + OSI-027; first compound 2.53 µM): 0.465
relative viability (FG-4592 + OSI-027; first compound 8 µM): 0.563
relative viability (FG-4592 + Decitabine; first compound 0.08 µM): 0.235
relative viability (FG-4592 + Decitabine; first compound 0.253 µM): 0.255
relative viability (FG-4592 + Decitabine; first compound 0.8 µM): 0.234
relative viability (FG-4592 + Decitabine; first compound 2.53 µM): 0.232
relative viability (FG-4592 + Decitabine; first compound 8 µM): 0.25
relative viability (FG-4592 + Olaparib; first compound 0.08 µM): 0.431
relative viability (FG-4592 + Olaparib; first compound 0.253 µM): 0.462
relative viability (FG-4592 + Olaparib; first compound 0.8 µM): 0.49
relative viability (FG-4592 + Olaparib; first compound 2.53 µM): 0.502
relative viability (FG-4592 + Olaparib; first compound 8 µM): 0.493
relative viability (IU1-47 + Pemetrexed; first compound 0.08 µM): 0.255
relative viability (IU1-47 + Pemetrexed; first compound 0.253 µM): 0.273
relative viability (IU1-47 + Pemetrexed; first compound 0.8 µM): 0.278
relative viability (IU1-47 + Pemetrexed; first compound 2.53 µM): 0.306
relative viability (IU1-47 + Pemetrexed; first compound 8 µM): 0.265

LOU-NH91
relative viability (FG-4592 + OSI-027; first compound 0.08 µM): 0.722
relative viability (FG-4592 + OSI-027; first compound 0.253 µM): 0.399
relative viability (FG-4592 + OSI-027; first compound 0.8 µM): 0.753
relative viability (FG-4592 + OSI-027; first compound 2.53 µM): 0.666
relative viability (FG-4592 + OSI-027; first compound 8 µM): 0.687
relative viability (FG-4592 + Decitabine; first compound 0.08 µM): 0.861
relative viability (FG-4592 + Decitabine; first compound 0.253 µM): 0.802
relative viability (FG-4592 + Decitabine; first compound 0.8 µM): 0.814
relative viability (FG-4592 + Decitabine; first compound 2.53 µM): 0.802
relative viability (FG-4592 + Decitabine; first compound 8 µM): 0.812
relative viability (FG-4592 + Olaparib; first compound 0.08 µM): 0.93
relative viability (FG-4592 + Olaparib; first compound 0.253 µM): 0.85
relative viability (FG-4592 + Olaparib; first compound 0.8 µM): 0.902
relative viability (FG-4592 + Olaparib; first compound 2.53 µM): 0.959
relative viability (FG-4592 + Olaparib; first compound 8 µM): 0.953
relative viability (IU1-47 + Pemetrexed; first compound 0.08 µM): 0.389
relative viability (IU1-47 + Pemetrexed; first compound 0.253 µM): 0.386
relative viability (IU1-47 + Pemetrexed; first compound 0.8 µM): 0.526
relative viability (IU1-47 + Pemetrexed; first compound 2.53 µM): 0.38
relative viability (IU1-47 + Pemetrexed; first compound 8 µM): 0.35
